Our source for the Activity, IC50 and inhibition values is ChEMBL document CHEMBL5338710, “Discovery of dearomatized isoprenylated acylphloroglucinols with colon tumor suppressive activities in mice via inhibiting NFκB-FAT1-PDCD4 signaling activation” (Eur J Med Chem, 2022).

Molecules are shown by their SMILES. Active and inactive are the calls of the source. No cut-off for these calls is given here. Where only a bound is given, the exact number is not on record here.

Data set [1] deals with HCT-116. The experiment in a line: Antiproliferative activity against human HCT-116 cells assessed as reduction in cell viability at 5 uM measured after 48 hrs by MTT assay. The data set is classed as functional, cell-based. Background: Tetrazolium dyes change colour on reduction, which living cells bring about.
In data set [2] the test system is HCT-116. Description: Antiproliferative activity against human HCT-116 cells assessed as reduction in cell viability measured after 48 hrs by MTT assay. It is filed as functional, cell-based. The note with it: HCT-116, 48 h.
Data set [3] in a line: Antiproliferative activity against human PBMC cells assessed as reduction in cell viability measured after 48 hrs by MTT assay. The data set is classed as toxicity, cell-based.
Data set [4] deals with HCT-116. Description: Antitumor activity against human HCT-116 cells xenografted in nude mouse assessed as decrease in tumor volume at 25 mg/kg, iv measured upto 23 days in presence of oxaliplatin. The data set is classed as functional, organism-based. Conditions: time <= 23.0 day. Background: Xenograft models place foreign cells or tissue in a host animal.
The subject of data set [5] is HCT-116. Description: Antitumor activity against human HCT-116 cells xenografted in nude mouse assessed as decrease in tumor weight at 25 mg/kg, iv measured upto 23 days in presence of oxaliplatin. It is filed as functional, organism-based. The note with it: time <= 23.0 day.
The subject of data set [6] is HCT-116. Description: Antitumor activity against human HCT-116 cells xenografted in nude mouse assessed as decrease in tumor volume at 3 to 4 mg/kg, iv measured for 23 days in presence of oxaliplatin. The note with it: dose 3-4 mg/kg, time 23.0 day. The data set is classed as functional, organism-based.
The subject of data set [7] is HCT-116. Description: Antitumor activity against human HCT-116 cells xenografted in nude mouse assessed as reduction in tumor weight at 3 to 4 mg/kg, iv measured for 23 days in presence of oxaliplatin. It is filed as functional, organism-based. The note with it: dose 3-4 mg/kg, time 23.0 day.
For data set [8], the target named is Nuclear factor NF-kappa-B complex (Homo sapiens) (UniProt Q00653+P19838+Q04206). Description: Inhibition of TNFalpha induced-NFkB phosphorylation in human HCT-116 cells at 1 to 5 uM pretreated for 24 hrs followed by TNFalpha induction and measured after 24 hrs by Western blot analysis. It is filed as cell-based. Conditions: dose 1-5 µM, time 48.0 hrs.
Nuclear factor NF-kappa-B complex (Homo sapiens), sequence (P19838 whole entry, looked up): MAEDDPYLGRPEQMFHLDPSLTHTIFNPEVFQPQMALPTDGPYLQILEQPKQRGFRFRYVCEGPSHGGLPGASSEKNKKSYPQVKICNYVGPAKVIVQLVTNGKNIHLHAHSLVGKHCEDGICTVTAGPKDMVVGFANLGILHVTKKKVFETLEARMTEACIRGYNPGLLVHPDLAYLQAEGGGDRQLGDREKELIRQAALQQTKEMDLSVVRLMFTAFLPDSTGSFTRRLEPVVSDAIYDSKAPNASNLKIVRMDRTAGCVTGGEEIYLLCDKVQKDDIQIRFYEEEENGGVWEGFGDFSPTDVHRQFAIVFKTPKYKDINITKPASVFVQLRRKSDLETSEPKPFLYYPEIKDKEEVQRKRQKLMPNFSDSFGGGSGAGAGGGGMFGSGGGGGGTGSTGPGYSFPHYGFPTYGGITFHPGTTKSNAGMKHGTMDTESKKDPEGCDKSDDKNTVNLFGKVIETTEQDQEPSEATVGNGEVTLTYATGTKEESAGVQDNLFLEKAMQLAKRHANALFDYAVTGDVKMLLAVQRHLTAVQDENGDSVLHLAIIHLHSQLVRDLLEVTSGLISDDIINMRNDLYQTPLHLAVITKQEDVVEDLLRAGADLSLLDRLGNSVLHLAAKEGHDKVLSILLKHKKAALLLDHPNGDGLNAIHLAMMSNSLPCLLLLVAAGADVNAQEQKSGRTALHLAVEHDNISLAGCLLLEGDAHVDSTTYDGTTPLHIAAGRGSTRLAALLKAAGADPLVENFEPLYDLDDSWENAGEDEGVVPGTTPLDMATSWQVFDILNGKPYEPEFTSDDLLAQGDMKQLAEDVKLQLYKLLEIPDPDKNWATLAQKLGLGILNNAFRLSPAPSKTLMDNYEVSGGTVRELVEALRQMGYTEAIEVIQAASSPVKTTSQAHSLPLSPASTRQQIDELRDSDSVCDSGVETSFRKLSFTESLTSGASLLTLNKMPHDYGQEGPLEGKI
Nuclear factor NF-kappa-B complex (Homo sapiens), sequence (Q00653 whole entry, looked up): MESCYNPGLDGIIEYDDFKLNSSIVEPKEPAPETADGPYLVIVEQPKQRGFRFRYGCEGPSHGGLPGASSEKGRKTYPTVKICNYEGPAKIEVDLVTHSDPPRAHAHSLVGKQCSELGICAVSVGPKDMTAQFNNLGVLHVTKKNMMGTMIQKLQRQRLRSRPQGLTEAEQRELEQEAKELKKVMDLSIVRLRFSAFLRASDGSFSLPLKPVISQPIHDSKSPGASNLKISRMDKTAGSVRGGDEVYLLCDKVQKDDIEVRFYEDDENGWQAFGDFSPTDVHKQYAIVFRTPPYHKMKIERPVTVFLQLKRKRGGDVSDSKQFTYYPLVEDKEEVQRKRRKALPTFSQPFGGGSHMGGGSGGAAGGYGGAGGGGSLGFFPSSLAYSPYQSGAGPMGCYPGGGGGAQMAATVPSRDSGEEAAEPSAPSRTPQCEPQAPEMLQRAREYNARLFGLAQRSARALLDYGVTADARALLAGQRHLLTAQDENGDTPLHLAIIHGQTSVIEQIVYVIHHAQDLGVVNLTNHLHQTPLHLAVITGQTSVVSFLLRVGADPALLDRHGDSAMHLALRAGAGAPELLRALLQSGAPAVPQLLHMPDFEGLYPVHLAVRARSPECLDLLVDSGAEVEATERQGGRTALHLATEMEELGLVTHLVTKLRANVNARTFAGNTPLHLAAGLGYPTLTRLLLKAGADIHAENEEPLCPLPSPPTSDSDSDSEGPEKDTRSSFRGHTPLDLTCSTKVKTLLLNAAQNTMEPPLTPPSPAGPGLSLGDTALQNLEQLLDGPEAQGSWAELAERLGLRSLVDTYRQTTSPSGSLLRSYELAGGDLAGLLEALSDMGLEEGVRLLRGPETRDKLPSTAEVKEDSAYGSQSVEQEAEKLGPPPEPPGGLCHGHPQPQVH
Nuclear factor NF-kappa-B complex (Homo sapiens), sequence (Q04206 whole entry, looked up): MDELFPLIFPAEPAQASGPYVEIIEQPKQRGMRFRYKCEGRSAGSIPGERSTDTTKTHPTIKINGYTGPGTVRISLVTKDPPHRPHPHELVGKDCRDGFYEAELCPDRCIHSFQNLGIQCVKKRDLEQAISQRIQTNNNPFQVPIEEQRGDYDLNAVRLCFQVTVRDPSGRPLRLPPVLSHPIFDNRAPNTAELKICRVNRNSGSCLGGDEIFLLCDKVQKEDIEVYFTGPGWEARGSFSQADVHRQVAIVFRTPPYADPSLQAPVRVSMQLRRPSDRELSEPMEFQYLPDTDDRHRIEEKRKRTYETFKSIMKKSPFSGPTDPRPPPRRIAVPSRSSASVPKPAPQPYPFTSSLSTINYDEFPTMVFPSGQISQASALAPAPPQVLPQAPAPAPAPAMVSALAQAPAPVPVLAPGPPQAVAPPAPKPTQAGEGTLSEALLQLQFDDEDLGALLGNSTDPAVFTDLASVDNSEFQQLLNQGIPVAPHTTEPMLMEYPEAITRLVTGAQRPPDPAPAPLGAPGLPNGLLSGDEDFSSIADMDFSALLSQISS

`CCC(C)C(=O)C1=C(O)C2=C(OC(C)(C)[C@@H]3CC[C@@](C)(O)[C@@H]3C2)[C@](C)(CC=C(C)C)C1=O` (some centres undefined): in the data set with HCT-116 [1], the result was Active.
Regarding `C=C(C)[C@@H]1CC[C@@](C)(O)[C@H]1CC1=C2O[C@H](C(C)(C)O)C[C@]2(CC=C(C)C)C(=O)C(C(=O)C(C)C)=C1O`, the result in the data set with HCT-116 [1] was Active.
Take `CC(C)=CCC1(CC=C(C)C)C(=O)C(C(=O)c2ccccc2)=C(O)C([C@@H]2C[C@H]3CC[C@]2(C)OC3(C)C)=C1O`: the result with HCT-116 [1] was Active.
On to `C=C(C)[C@@H]1CC[C@](C)(O)[C@H]1CC1=C2O[C@H](C(C)(C)O)C[C@]2(CC=C(C)C)C(=O)C(C(=O)c2ccccc2)=C1O`, for which the outcome in the data set with HCT-116 [1] was Active.
For `CC(C)=CC[C@@]12C[C@@H](C(C)(C)O)OC1=C(CC1[C@H]3CC[C@]1(C)OC3(C)C)C(O)=C(C(=O)C(C)C)C2=O` (some centres undefined), in the data set with HCT-116 [1], the result was Active.
In the case of `CC(C)=CCC1(CC=C(C)C)C(=O)C(C(=O)C(C)C)=C(O)C([C@H]2C[C@]3(C(C)(C)O)CC[C@@]2(C)O3)=C1O`, the result in the data set on HCT-116 [1] was Active.
What is called IC50 is the concentration at which inhibition is half-maximal. `C=C(C)[C@@H]1CC[C@@](C)(O)[C@H]1CC1=C(O)C(CC=C(C)C)(CC=C(C)C)C(=O)C(C(=O)C(C)CC)=C1O` (some centres undefined): the result in the data set with HCT-116 [1] was Active. The IC50 in the data set with HCT-116 [2] stood at 2.46 µM. Further, the IC50 at 48 h in data set [3] stood at 10 µM.
In the case of `CCC(C)C(=O)C1=C(O)C2=C(OC(C)(C)C3CC[C@@](C)(O)[C@H]3C2)[C@](C)(CC=C(C)C)C1=O` (some centres undefined), in the data set on HCT-116 [1], the result was Active.
As to `C=C(C)[C@@H]1CC[C@@](C)(O)[C@H]1CC1=C2O[C@H](C(C)(C)O)C[C@]2(C)C(=O)C(C(=O)C(C)CC)=C1O` (some centres undefined), the result in the data set on HCT-116 [1] was Active.
Consider `C=C(C)[C@@H]1CC[C@@](C)(O)[C@H]1CC1=C(O)C(CC=C(C)C)(CC=C(C)C)C(=O)C(C(=O)c2ccccc2)=C1O`, for which, in the data set on HCT-116 [1], the outcome was Active.
The same measure, in the same setting: for `COC[C@@H]1C2=C(O)C(CC=C(C)C)(CC=C(C)C)C(=O)C(C(=O)C(C)C)=C2OC1(C)C` the value was “Active”; for `CC(C)=CC[C@]1(C)C(=O)C(C(=O)C(C)C)=C(O)C2=C1OC(C)(C)C1CC[C@@](C)(O)[C@H]1C2` (some centres undefined), “Active”.
On the same count and under the same terms, for `CC(C)=CCC1(CC=C(C)C)C(=O)C(C(=O)C(C)C)=C(O)C2=C1OC(C)(C)[C@@H]1CC[C@@](C)(O)[C@@H]1C2` the value was “Active”; for `CC(C)=CC[C@@]12C(=O)C(C(=O)C(C)C)=C(O)C(C)=C1O[C@]1(C)CCC(C(C)C)=C[C@H]21`, “Active”.
With `O=c1[nH]cc(F)c(=O)[nH]1`, the result with HCT-116 [4], with HCT-116 [5], with HCT-116 [6] and in the data set on HCT-116 [7] was Active.
`CC(C)=CC[C@@]1(C)C(=O)C(C(=O)C(C)C)=C(O)C2=C1O[C@]1(C)CC[C@@]3(C(C)C)O[C@@]13[C@H]2O`: the result in the data set with HCT-116 [1] was Active.
In the case of `C=C(C)[C@H]1CC[C@@](C)(O)[C@@H](C2=C(O)C(CC=C(C)C)(CC=C(C)C)C(=O)C(C(=O)c3ccccc3)=C2O)C1`, the outcome in the data set on HCT-116 [1] was Active. The IC50 in the data set with HCT-116 [2] stood at 3.67 µM. The IC50 at 48 h in data set [3] is 24 µM.
For the compound `C=C(C)[C@H]1CC[C@@](C)(O)[C@@H](C2=C(O)[C@@](C)(CC=C(C)C)C(=O)C(C(=O)C(C)CC)=C2O)C1` (some centres undefined), the outcome with HCT-116 [1] was Active. Further, in the data set on HCT-116 [2], the IC50 worked out at 2.32 µM. For the same compound, the IC50 at 48 h in data set [3] is 19.6 µM.
Take `CC(C)=CCC1(CC=C(C)C)C(=O)C(C(=O)C(C)C)=C(O)C2=C1O[C@]1(C)CCC3(C(C)C)OC31[C@H]2O` (some centres undefined): the result in the data set on HCT-116 [1] was Active.
On to `CC(C)=CC[C@]1(C)C(=O)C(C(=O)C(C)C)=C(O)C2=C1O[C@]1(C)CC[C@]3(C(C)C)O[C@]13[C@H]2O`, for which the result in the data set on HCT-116 [1] was Active.
In the case of `C=C(C)[C@@H]1CC[C@@]2(C)OC3=C(CC12)C(O)=C(C(=O)C(C)C)C(=O)C3(C)CC=C(C)C` (some centres undefined), the result in the data set with HCT-116 [1] was Active.
`C=C(C)[C@H]1CC[C@@](C)(O)[C@@H](C2=C(O)[C@](C)(CC=C(C)C)C(=O)C(C(=O)C(C)C)=C2O)C1`: the outcome with HCT-116 [1] was Active. Besides, in the data set on HCT-116 [2], the half-maximal inhibitory concentration (IC50) came out at 2.63 µM. Besides, the IC50 at 48 h in data set [3] was 14.4 µM.
On the same counts, the results for `C=C(C)[C@@H]1CC[C@@](C)(O)[C@H]1CC1=C(O)C(C)(CC=C(C)C)C(=O)C(C(=O)C(C)CC)=C1O` (some centres undefined) are “Active”, 5.63 µM and > 100 µM.
Turning to `C=C(C)[C@@H]1CC[C@@]2(C)OC3=C(CC12)C(O)=C(C(=O)c1ccccc1)C(=O)C3(CC=C(C)C)CC=C(C)C` (some centres undefined), the result in the data set on HCT-116 [1] was Active.
For the compound `CC(C)=CCC1(CC=C(C)C)C(=O)/C(=C(/O)c2ccccc2)C2=C(C1O)[C@H]1C=C(C(C)C)CC[C@@]1(C)O2` (some centres undefined), the result with HCT-116 [1] was Active.
Turning to `CC(C)=CCC1(CC=C(C)C)C(=O)C(C(=O)c2ccccc2)=C(O)C([C@H]2C=C(C(C)C)CC[C@@]2(C)O)=C1O`, in the data set with HCT-116 [1], the result was Active.
On to `C=C(C)[C@H]1CC[C@@](C)(O)[C@@H](C2=C(O)C(CC=C(C)C)(CC=C(C)C)C(=O)C(C(=O)C(C)C)=C2O)C1`, for which the inhibition result in data set [8] is “inactive”.
With `C=C(C)[C@H]1CC[C@@]2(C)OC3=C(CC12)C(O)=C(C(=O)C(C)CC)C(=O)C3(C)CC=C(C)C` (some centres undefined), the result with HCT-116 [1] was Active.
Consider `CC(C)=CCC1(C)C(=O)C(C(=O)C(C)C)=C(O)C([C@@H]2C[C@H]3CC[C@]2(C)OC3(C)C)=C1O` (some centres undefined), for which the outcome with HCT-116 [1] was Active.
Consider `C=C(C)[C@@H]1CC[C@@](C)(O)[C@H]1CC1=C2O[C@H](C(C)(C)O)C[C@]2(CC=C(C)C)C(=O)C(C(=O)c2ccccc2)=C1O`, for which the outcome in the data set on HCT-116 [1] was Active.
Take `CC(C)=CC[C@@]1(C)C(=O)C(C(=O)C(C)C)=C(O)C([C@H]2C[C@]3(C(C)(C)O)CC[C@@]2(C)O3)=C1O`: in the data set on HCT-116 [1], the outcome was Active.
